# According to patent publication US20040138301A1, “Chemical uncouplers for the treatment of obesity” (priority 2002, published 2004):
# Like-named read-outs stand apart in the source and are kept apart here.
# Tests used:
# isolated mitochondria = assay: Assay (II): effect of chemical uncouplers on mitochondrial respiration using isolated mitochondria (oxygen consumption); format: biochemical
# Method: Assay (II)—The Effect of Chemical Uncouplers on Mitochondrial Respiration Using Isolated Mitochondria.
# This assay is used to investigate if the increase in glucose utilisation caused by the test compounds observed in the glucose utilisation assay is due to an increase in the respiration of the mitochondria. This is done by measuring oxygen consumption in isolated mitochondria.
# A Clark oxygen electrode is used to determine the oxygen consumption. The isolated mitochondria are added to medium containing oxygen and nutrients (e.g. Succinate) and the rate of oxygen consumptions is measured, when stabilized a small amount of ADP is added to increase the respiration and an increase in the rate of oxygen consumption is measured. When the rate of oxygen consumption again has stabilized the test compound is added and a further increase in oxygen consumption is seen. This experiment is done with and without the addition of oligomycin which is an inhibitor of the ATP-synthase. Finally, the test compound is examined without adding ADP. If the test compound stimulates the rate of oxygen consumption in all setups, it is regarded as a chemical uncoupler.
# HEP-G2 cells = assay: cells; settings: Homo sapiens; for EC50: HepG2, 3 h
# Outline: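 HEP-G2 cells were treated with compound for 3 h at 37 °C in MEM/0.5% BSA containing 10 μCi/ml D-(3-^3H(N))-glucose, then lysed with TCA; ^3H-water released via the respiratory chain was recovered by evaporation at 50 °C and counted. Values are corrected for non-specific and basal counts, expressed as % of maximal FCCP or DNP stimulation, and EC50 is from a variable-slope sigmoidal fit.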
# FSK-4 cells = assay: Assay (IV): Glucose utilisation in FSK-4 cells; format: cell-based; settings: for EC50: read-out: FSK4 EC50; for Emax: read-out: FSK4 Emax (% of FCCP)
# [1] = humans; cited from earlier work
# [2] = HepG2, read-out: HEP-G2 Emax (% of FCCP)
# [3] = HepG2, read-out: HEP-G2 Emax (μM)
# [4] = read-out: HEP-G2 EC50, HEP-G2 cells, glucose utilisation, 3 hours incubation
# [5] = HepG2, read-out: HEP-G2 Emax (% of FCCP), HEP-G2 cells, maximal stimulation relative to FCCP
# [6] = HepG2, read-out: HEP-G2 Emax (μM), HEP-G2 cells, concentration at which Emax is achieved (CEmax)
SMILES,Mito State-4 (isolated mitochondria),EC50 (HEP-G2 cells; read-out: HEP-G2 EC50) [µM],Emax (HEP-G2 cells; [2]) [%],EC (Emax) (HEP-G2 cells; [3]) [µM],EC50 (FSK-4 cells; 24 h) [µM],Emax (FSK-4 cells) [%],lowest dose which could be lethal relative to average dose giving a desired 50% increase in basal metabolic rate [1],EC50 (HEP-G2 cells; [4]) [µM],Emax (HEP-G2 cells; [5]) [%],EC (Emax) (HEP-G2 cells; [6]) [µM],"EC50 (FSK-4 cells; FSK-4 cells, glucose utilisation, 24 hours incubation) [µM]","Emax (FSK-4 cells; FSK-4 cells, maximal efficacy relative to FCCP) [%]"
"CC(CCC(=O)O)(c1ccc(O)c([N+](=O)[O-])c1)c1ccc(O)c([N+](=O)[O-])c1 [Example 1, 4,4-Bis-(4-Hydroxy-3-Nitrophenyl)-Valeric Acid]",Ok,40,45,100,–,–,–,–,–,–,–,–
"CC(C)(C)c1cc(C=C(C#N)C#N)cc(C(C)(C)C)c1O [Example 25, 2,6-Di-t-Butyl-4-(2′,2′-Dicyanovinyl)Phenol, reference compound]",Ok,0.48,100,10,0.01,110,–,–,–,–,–,–
"O=[N+]([O-])c1ccc(O)c([N+](=O)[O-])c1 [Example 26, 2,4-Dinitrophenol, reference compound]",Ok,225,100,500,90,95,twice,–,–,–,–,–
"CC(C)(C)c1cc(C(=O)Nc2ccc([N+](=O)[O-])cc2Cl)c(O)c(C(C)(C)C)c1 [Example 40, 3,5-Di-Tert-Butyl-N-(2-Chloro-4-Nitro-Phenyl)-2-Hydroxy-Benzamide]",Ok,–,–,–,–,–,–,0.58,105,3,–,–
"CC(C)(C)c1cc([N+](=O)[O-])cc(C(C)(C)C)c1O [Example 72, 2,6-Di-Tert-Butyl-4-Nitro-Phenol]",Ok,13,100,100,–,–,–,–,–,–,–,–
"CCOC(=O)/C(C#N)=C(/C)c1cc(C(C)(C)C)c(O)c(C(C)(C)C)c1 [Example 82, 2-Cyano-3-(3,5-Di-Tert-Butyl-4-Hydroxy-Phenyl)-But-2-Enoic Acid Ethyl Ester]",–,–,–,–,–,–,–,10,100,30,11,90
